Series [1] relates to MV4-11. Briefly: Antiproliferative activity against human MV4-11 cells assessed as inhibition of cell proliferation at 20 uM incubated for 48 hrs by CCK8 assay relative to control. It is filed as functional. (In general: Tetrazolium dyes change colour on reduction, which living cells bring about.)
For series [2], the system named is RAW264.7. Nature of the series: Antiinflammatory activity against mouse RAW264.7 cells assessed as inhibition of LPS-NO production at 20 uM by Griess reagent based assay relative to control. It is filed as functional. A general note: Griess reagent forms a coloured azo dye with nitrite.
In series [3] the test system is RAW264.7. Nature of the series: Antiinflammatory activity against mouse RAW264.7 cells assessed as inhibition of LPS-NO production by Griess reagent based assay. It is filed as functional, cell-based.
Series [4] relates to RAW264.7. Nature of the series: Cytotoxicity against mouse RAW264.7 cells assessed as reduction in cell viability incubated for 24 hrs by MTT assay. As to conditions: raw264.7, 24 h. It is filed as toxicity, cell-based.
For series [5], the system named is Mus musculus. Nature of the series: Antiinflammatory activity in LPS-induced BALB/c sepsis mouse model assessed as decrease in serum TNF-alpha level at 2.5 mg/kg preadministered with compound via gavage for 14 days followed by LPS stimulation and measured after 6 hrs by ELISA. It is filed as functional, organism-based. The conditions noted are these: time 342.0 hrs. For orientation: In an ELISA, binding on a coated surface is turned into a signal by an enzyme label.

The subject of series [6] is RAW264.7. Nature of the series: Antiinflammatory activity in LPS-induced mouse RAW264.7 cells assessed as reduction in ROS level at 10 uM pretreated with compound followed by LPS stimulation and measured after 1 hrs by flow cytometric analysis. It is filed as functional, cell-based.
Series [7] has as its system Mus musculus. Briefly: Antiinflammatory activity in LPS-induced BALB/c sepsis mouse model assessed as decrease in infiltration of macrophages in spleen at 2.5 mg/kg preadministered with compound via gavage for 14 days followed by LPS stimulation and measured after 6 hrs by immunohistochemistry analysis. In kind it is functional, organism-based. As to conditions: time 342.0 hrs.

In series [8] the test system is Mus musculus. Nature of the series: Antiinflammatory activity in LPS-induced BALB/c sepsis mouse model assessed as decrease in inflammatory cells in spleen at 2.5 mg/kg preadministered with compound via gavage for 14 days followed by LPS stimulation and measured after 6 hrs by H&E staining based analysis. In kind it is functional, organism-based. As to conditions: time 342.0 hrs.

In series [9] the test system is Mus musculus. Nature of the series: Antiinflammatory activity in LPS-induced BALB/c sepsis mouse model assessed as decrease in serum IL-1beta level at 2.5 mg/kg preadministered with compound via gavage for 14 days followed by LPS stimulation and measured after 6 hrs by ELISA. It is filed as functional, organism-based. The conditions noted are these: time 342.0 hrs.

The subject of series [10] is Mus musculus. Nature of the series: Antiinflammatory activity in LPS-induced BALB/c sepsis mouse model assessed as decrease in MDA level in serum at 2.5 mg/kg preadministered with compound via gavage for 14 days followed by LPS stimulation and measured after 6 hrs. It is filed as functional, organism-based. As to conditions: time 342.0 hrs.
Series [11] has as its system Mus musculus. Nature of the series: Antiinflammatory activity in LPS-induced BALB/c sepsis mouse model assessed as decrease in serum BUN level at 2.5 mg/kg preadministered with compound via gavage for 14 days followed by LPS stimulation and measured after 6 hrs. It is filed as functional, organism-based. As to conditions: time 342.0 hrs.
For series [12], the system named is Mus musculus. Briefly: Antiinflammatory activity in LPS-induced BALB/c sepsis mouse model assessed as increase in SOD level in serum at 2.5 mg/kg preadministered with compound via gavage for 14 days followed by LPS stimulation and measured after 6 hrs. The conditions noted are these: time 342.0 hrs. It is filed as functional, organism-based.
For series [13], the system named is Mus musculus. Nature of the series: Antiinflammatory activity in LPS-induced BALB/c sepsis mouse model assessed as increase in GSH level in serum at 2.5 mg/kg preadministered with compound via gavage for 14 days followed by LPS stimulation and measured after 6 hrs. In kind it is functional, organism-based. The conditions noted are these: time 342.0 hrs.
The subject of series [14] is Mus musculus. Nature of the series: Antiinflammatory activity in LPS-induced BALB/c sepsis mouse model assessed as decrease in serum AST level at 2.5 mg/kg preadministered with compound via gavage for 14 days followed by LPS stimulation and measured after 6 hrs. As to conditions: time 342.0 hrs. It is filed as functional, organism-based.
For series [15], the system named is Mus musculus. Nature of the series: Antiinflammatory activity in LPS-induced BALB/c sepsis mouse model assessed as decrease in serum IL-6 level at 2.5 mg/kg preadministered with compound via gavage for 14 days followed by LPS stimulation and measured after 6 hrs by ELISA. In kind it is functional, organism-based. The conditions noted are these: time 342.0 hrs.

Series [16] concerns Mus musculus. Nature of the series: Antiinflammatory activity in LPS-induced BALB/c sepsis mouse model assessed as decrease in cell gap in spleen at 2.5 mg/kg preadministered with compound via gavage for 14 days followed by LPS stimulation and measured after 6 hrs by H&E staining based analysis. In kind it is functional, organism-based. As to conditions: time 342.0 hrs.
Series [17] has as its system Mus musculus. Briefly: Antiinflammatory activity in LPS-induced BALB/c sepsis mouse model assessed as decrease in serum creatinine level at 2.5 mg/kg preadministered with compound via gavage for 14 days followed by LPS stimulation and measured after 6 hrs. In kind it is functional, organism-based. As to conditions: time 342.0 hrs.
Series [18] concerns Mus musculus. Briefly: Antiinflammatory activity in LPS-induced BALB/c sepsis mouse model assessed as decrease in serum ALT level at 2.5 mg/kg preadministered with compound via gavage for 14 days followed by LPS stimulation and measured after 6 hrs. In kind it is functional, organism-based. The conditions noted are these: time 342.0 hrs.

Active and inactive are the calls of the source. No cut-off for these calls is given here.

In the case of `N#Cc1ccc(-c2cc(C3CCNCC3)n[nH]2)cc1`, the inhibition (usually the change of the read-out against control, counted positive when it falls) at 20 µM in [1] is 6%; in [2], greater than 50%. On to `Cc1cc(-c2cc(C3CCNCC3)n[nH]2)cc(C)n1`, for which the inhibition at 20 µM in series [1] is 0.2%. With `Clc1cnccc1-c1cc(C2CCNCC2)n[nH]1`, the inhibition at 20 µM in series [1] was determined as 32.8%.

Consider `Fc1cccc(-c2cc(C3CCNCC3)n[nH]2)c1`, for which the inhibition at 20 µM in series [1] stood at 0.1%. The same measure, in the same setting: the figure for `Fc1ccc(-c2cc(C3CCNCC3)n[nH]2)cc1` is 0.1%; for `Fc1cc(F)cc(-c2cc(C3CCNCC3)n[nH]2)c1` it is 2.1%. With `Clc1cc(-c2cc(C3CCNCC3)n[nH]2)cc(Cl)n1`, in [1], the inhibition at 20 µM was 22.1%.

Turning to `COc1cc(-c2cc(C3CCNCC3)n[nH]2)ccn1`, the inhibition at 20 µM in [1] is 19.3%.

Regarding `c1ncc(-c2cc(C3CCNCC3)n[nH]2)cn1`, in [1], the inhibition at 20 µM was determined as 0.1%. Consider `c1cc(-c2cc(C3CCNCC3)n[nH]2)ccn1`, for which, in [1], the inhibition at 20 µM turned out to be 51.2%. In addition, in series [3], the outcome was inactive. Turning to `Brc1cnccc1-c1cc(C2CCNCC2)n[nH]1`, in series [1], the inhibition at 20 µM was found to be 6.1%. Take `CN1CCN(c2ccc(-c3cc(C4CCNCC4)n[nH]3)cc2)CC1`: the results for the inhibition at 20 µM in series [1] and in series [2] were 8.5% and greater than 50%, respectively. As for `Clc1cncc(Cl)c1-c1cc(C2CCNCC2)n[nH]1`, the inhibition at 20 µM in series [1] is 19.6%. The same measure, in the same setting: the figure for `FC(F)(F)c1ccc(-c2cc(C3CCNCC3)n[nH]2)cc1` is 36%.

As for `Fc1cc(-c2cc(C3CCNCC3)n[nH]2)cc(F)c1F`, the inhibition at 20 µM in series [1] came out at 3.4%. On to `Nc1cc(-c2cc(C3CCNCC3)n[nH]2)ccn1`, for which, in series [1], the inhibition at 20 µM was found to be 33.3%. Also, the result in [3] was inactive. Also, the Activity entry in [4] was “Non-Toxic”. As to `Clc1cc(-c2cc(C3CCNCC3)n[nH]2)ccn1`, the inhibition at 20 µM in [1] is 35.6%. For the compound `Cn1ccc2c(-c3cc(C4CCNCC4)n[nH]3)ccnc21`, the inhibition at 20 µM in series [1] was 23.8%.

`Cc1cc(-c2cc(C3CCNCC3)n[nH]2)ccn1`: the inhibition at 20 µM in series [1] was 0.1%. The same measure, in the same setting: the figure for `O=[N+]([O-])c1ccc(-c2cc(C3CCNCC3)n[nH]2)cc1` is 4.6%; for `c1ncc(-c2cc(C3CCNCC3)n[nH]2)s1` it is 11.1%. Still for that read-out and setting: the figure for `Cc1cc(F)ccc1-c1cc(C2CCNCC2)n[nH]1` is 31.2%; for `CN1CCC(c2cc(-c3ccncc3)[nH]n2)CC1` it is 3.39%. The same measure, in the same setting: the figure for `c1cnc(-c2cc(C3CCNCC3)n[nH]2)cn1` is 0.1%.

As to `c1cc(-c2cc(C3CCNCC3)n[nH]2)cs1`, the inhibition at 20 µM in series [1] was found to be 0.1%. `CCNc1cc(-c2cc(C3CCNCC3)n[nH]2)ccn1`: the inhibition at 20 µM in [1] stood at 15.4%. Same read-out and setting: the figure for `Fc1ccc(-c2cc(C3CCNCC3)n[nH]2)c(F)c1` is 9.8%. On the same count and under the same terms, the figure for `FC(F)(F)c1cc(-c2cc(C3CCNCC3)n[nH]2)ccn1` is 52.5%. `c1cc(-c2cc(C3CCNCC3)[nH]n2)ccn1`: in series [4], the Activity entry was “Non-Toxic”. As for `CNc1cc(-c2cc(C3CCNCC3)n[nH]2)ccn1`, in series [1], the inhibition at 20 µM amounted to 30.2%.

As to `Nc1ncc(-c2cc(C3CCNCC3)n[nH]2)cn1`, the inhibition at 20 µM in series [1] was 37.9%. As to `C[C@@H]1C[C@H]2[C@@H]3CCC4=CC(=O)C=C[C@]4(C)[C@@]3(F)[C@@H](O)C[C@]2(C)[C@@]1(O)C(=O)CO`, the outcome in series [5], in series [6], in [7], in [8], in series [9] and in series [10] was Active. Besides, the result in series [11], in series [12], in [13], in series [14], in [15] and in series [16] was Active. For the same compound, the result in series [17] and in [18] was Active. Take `c1ccc(-c2cc(C3CCNCC3)n[nH]2)cc1`: the inhibition at 20 µM in [1] worked out at 0.3%. Still for that read-out and setting: the same measure for `Fc1cc(-c2cc(C3CCNCC3)n[nH]2)ccn1`: 0.1%; for `c1cc(-c2cc(C3CCNCC3)n[nH]2)ncn1`: 0.2%. As for `Brc1cc(-c2cc(C3CCNCC3)n[nH]2)ccn1`, the inhibition at 20 µM in [1] stood at 20.7%. Same read-out and setting: the same measure for `CN(C)c1cc(-c2cc(C3CCNCC3)n[nH]2)ccn1`: 56.9%; for `Nc1ccc(-c2cc(C3CCNCC3)n[nH]2)cn1`: 35%. As to `Fc1cnccc1-c1cc(C2CCNCC2)n[nH]1`, the inhibition at 20 µM in [1] was determined as 0.1%. Besides, in series [3], the result was inactive. The Activity result in series [4] is listed as “Non-Toxic”. As to `c1cncc(-c2cc(C3CCNCC3)n[nH]2)c1`, the inhibition at 20 µM in [1] stood at 0.2%. Same read-out and setting: the same measure for `Nc1ncccc1-c1cc(C2CCNCC2)n[nH]1`: 15.2%; for `Fc1ccc(-c2cc(C3CCNCC3)n[nH]2)cc1F`: 6.4%.

The values are drawn from ChEMBL document CHEMBL5537205, “Discovery of D25, a Potent and Selective MNK Inhibitor for Sepsis-Associated Acute Spleen Injury” (J Med Chem, 2024).
